T/C data for 17 compounds are collected here from PubChem BioAssay AID276 (DTP/NCI, 2004).

The test relates to B6C3F1 mice, Lewis lung carcinoma iv, survival T/C. In words: NCI In Vivo Anticancer Drug Screen. Data for tumor model Lewis Lung Carcinoma (intravenous) in B6C3F1 mice. The note with it: endpoint: median survival time, schedule: Q01DX009 (ip), higher = longer survival. In short, it runs like this:
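Read-out is survival, expressed as the treated-group measurement over the vehicle control-group measurement. Animals bore a transplantable tumor and were given compound.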

Where [1] appears, read: dose: 6.25 mg/kg/injection, vehicle: saline with Tween-80.
Setting [2] is: dose: 12.5 mg/kg/injection, vehicle: saline with Tween-80.
Setting [3] is: dose: 25.0 mg/kg/injection, vehicle: saline with Tween-80.
Where [4] appears, read: dose: 50.0 mg/kg/injection, vehicle: saline with Tween-80.
Where [5] appears, read: dose: 100.0 mg/kg/injection, vehicle: saline with Tween-80.
Setting [6] is: dose: 3.12 mg/kg/injection, vehicle: Klucel (hydroxypropylcellulose) (HPC).
Where [7] appears, read: dose: 12.5 mg/kg/injection, vehicle: Klucel (hydroxypropylcellulose) (HPC).
[8] abbreviates: dose: 25.0 mg/kg/injection, vehicle: Klucel (hydroxypropylcellulose) (HPC).
[9] abbreviates: dose: 2.5 mg/kg/injection, vehicle: saline with Tween-80.
The mark [10] stands for this setting: dose: 5.0 mg/kg/injection, vehicle: saline with Tween-80.
Setting [11] is: dose: 10.0 mg/kg/injection, vehicle: saline with Tween-80.
Setting [12] is: dose: 25.0 mg/kg/injection, vehicle: saline.
Setting [13] is: dose: 50.0 mg/kg/injection, vehicle: saline.
Setting [14] is: dose: 100.0 mg/kg/injection, vehicle: saline.
Setting [15] is: dose: 200.0 mg/kg/injection, vehicle: saline.
The mark [16] stands for this setting: dose: 400.0 mg/kg/injection, vehicle: saline.
[17] abbreviates: dose: 12.5 mg/kg/injection, vehicle: saline.

Each structure is given as a SMILES string. Where “and” joins values, the source holds several entries; their conditions need not be identical. Equal entries are not always repeated. Toxic doses and inconclusive results are not listed.

With `Cc1cc(NCCCCCCNc2cc(C)nc3cc(N(C)C)ccc23)c2ccc(N(C)C)cc2n1`, the T/C by setting is: (dose: 3.12 mg/kg/injection, vehicle: distilled water + Tween-80 + alcohol) 98 % of control; (dose: 6.25 mg/kg/injection, vehicle: distilled water + Tween-80 + alcohol) 100 % of control; (dose: 12.5 mg/kg/injection, vehicle: distilled water + Tween-80 + alcohol) 93 % of control; (dose: 25.0 mg/kg/injection, vehicle: distilled water + Tween-80 + alcohol) 102 % of control.
Turning to `CN(C)CCOc1ccc2c(c1)C/C(=C/c1ncc([N+](=O)[O-])n1C)C2=O`, the T/C is 102 % of control under setting [1], 88 % of control under setting [2], 104 % of control under setting [3] and 100 % of control under setting [4].
Consider `CC1(C)CC2(C)OC2C2(C1)N=NC(=Nc1ccccc1)O2` (stereo not given), for which the T/C was 97 % of control under setting [3], 100 % of control under setting [4] and 106 % of control under setting [5].
As to `COc1ccc(Cl)[n+]([O-])n1`, the T/C by setting is: (dose: 0.39 mg/kg/injection, vehicle: Klucel (hydroxypropylcellulose) (HPC)) 98 % of control; (dose: 0.78 mg/kg/injection, vehicle: Klucel (hydroxypropylcellulose) (HPC)) 91 % of control; (dose: 1.56 mg/kg/injection, vehicle: Klucel (hydroxypropylcellulose) (HPC)) 103 % of control; under setting [6], 96 % of control; (dose: 6.25 mg/kg/injection, vehicle: Klucel (hydroxypropylcellulose) (HPC)) 100 % of control and 88 % of control; under setting [7], 99 % of control and 105 % of control. The T/C is 107 % of control under setting [8] and 112 % of control (dose: 50.0 mg/kg/injection, vehicle: Klucel (hydroxypropylcellulose) (HPC)).
For the compound `O=NN(CCF)C(=O)NC1CCCCC1`, the T/C reads like this: under setting [9], 109 % of control; under setting [6], 107 % of control; under setting [10], 109 % of control; under setting [11], 155 % of control; under setting [7], 269 % of control and 291 % of control; (dose: 20.0 mg/kg/injection, vehicle: saline with Tween-80) 229 % of control. Also, the T/C under setting [8] is 227 % of control.
As to `O=C1CCC(=O)N1CO`, the T/C runs as follows: under setting [12], 94 % of control; under setting [13], 98 % of control; under setting [14], 94 % of control; under setting [15], 103 % of control; under setting [16], 106 % of control.
Consider `CSc1ncnc2c1ncn2C1OC(CO)C(O)C1O` (stereo not given), for which the T/C (dose: 3.12 mg/kg/injection, vehicle: saline + alcohol) was 96 % of control; the T/C (dose: 6.25 mg/kg/injection, vehicle: saline + alcohol) is 97 % of control; the T/C (dose: 12.5 mg/kg/injection, vehicle: saline + alcohol) was 100 % of control; the T/C (dose: 25.0 mg/kg/injection, vehicle: saline + alcohol) was 105 % of control; the T/C (dose: 50.0 mg/kg/injection, vehicle: saline + alcohol) was 117 % of control.
As to `CC(C)(C)N1CC1CNC(=O)C(=O)NCC1CN1C(C)(C)C` (stereo not given), the T/C reads like this: (dose: 0.39 mg/kg/injection, vehicle: saline with Tween-80) 99 % of control; (dose: 0.78 mg/kg/injection, vehicle: saline with Tween-80) 102 % of control and 108 % of control; (dose: 1.56 mg/kg/injection, vehicle: saline with Tween-80) 105 % of control and 106 % of control; (dose: 3.12 mg/kg/injection, vehicle: saline with Tween-80) 101 % of control and 122 % of control; under setting [1], 104 % of control and 111 % of control; under setting [2], 108 % of control and 123 % of control.
For the compound `CC(C)C(N)C(=O)Nc1nncs1` (stereo not given), the T/C reads like this: under setting [17], 108 % of control; under setting [12], 104 % of control; under setting [13], 114 % of control and 121 % of control; (dose: 50.62 mg/kg/injection, vehicle: saline) 103 % of control; (dose: 50.62 mg/kg/injection, vehicle: suspension in saline) 110 % of control; (dose: 67.5 mg/kg/injection, vehicle: saline) 103 % of control. Moreover, the T/C was 124 % of control (dose: 67.5 mg/kg/injection, vehicle: suspension in saline); 100 % of control (dose: 90.0 mg/kg/injection, vehicle: saline); 165 % of control and 245 % of control under setting [14]; 112 % of control (dose: 120.0 mg/kg/injection, vehicle: saline); 157 % of control (dose: 120.0 mg/kg/injection, vehicle: suspension in saline); 117 % of control (dose: 160.0 mg/kg/injection, vehicle: saline).
Turning to `CCN(CC)Cc1cc2[nH]c3c4ccc(Cl)cc4ncc3c2cc1OC`, the T/C is 97 % of control under setting [2], 101 % of control under setting [3] and 101 % of control under setting [4].
As to `COc1ccc2nonc2c1`, the T/C by setting is: under setting [1], 107 % of control and 112 % of control; under setting [2], 102 % of control and 118 % of control; under setting [3], 101 % of control and 107 % of control; under setting [4], 106 % of control and 109 % of control.
On to `Nc1ccc(Cn2ccc3c4c(N)nc(N)nc4ccc32)cc1`, for which the T/C runs as follows: (dose: 1.25 mg/kg/injection, vehicle: saline with Tween-80) 105 % of control; under setting [9], 107 % of control; under setting [10], 107 % of control; under setting [11], 108 % of control.
As for `CC(=O)N(C)c1ccc(Nc2cc(C)[nH]c3ccc4ncnc4c23)cc1`, the T/C was 100 % of control (dose: 6.25 mg/kg/injection, vehicle: saline); 100 % of control under setting [17]; 105 % of control under setting [12]; 102 % of control under setting [13].
For the compound `COc1ccc2c(c1)CCn1c(C)c(COC(=O)NC(C)C)c(COC(=O)NC(C)C)c1-2`, the T/C runs as follows: (dose: 3.12 mg/kg/injection, vehicle: distilled water + Tween-80) 102 % of control; (dose: 6.25 mg/kg/injection, vehicle: distilled water + Tween-80) 99 % of control; (dose: 12.5 mg/kg/injection, vehicle: distilled water + Tween-80) 87 % of control.
For the compound `O=c1ncccn1[C@@H]1O[C@H](CO)[C@H](O)C1O` (stereo not given in full), the T/C runs as follows: under setting [12], 92 % of control and 96 % of control; under setting [13], 88 % of control and 101 % of control; under setting [14], 105 % of control; under setting [15], 108 % of control and 119 % of control; under setting [16], 97 % of control and 116 % of control.
Consider `O=C(NC1CCCCC1)OCc1c(COC(=O)NC2CCCCC2)c(-c2ccc(Cl)c(Cl)c2)n2c1CCC2`, for which the T/C under setting [3] is 100 % of control and 108 % of control; the T/C under setting [4] is 102 % of control and 105 % of control; the T/C under setting [5] is 95 % of control and 108 % of control; the T/C (dose: 200.0 mg/kg/injection, vehicle: saline with Tween-80) was 106 % of control and 113 % of control; the T/C (dose: 400.0 mg/kg/injection, vehicle: saline with Tween-80) was 110 % of control and 120 % of control.
As to `[Cl][Pt+2][Cl].[NH-]C1CCC1.[NH2-]`, the T/C (dose: 0.75 mg/kg/injection, vehicle: saline) was 101 % of control; the T/C (dose: 3.0 mg/kg/injection, vehicle: saline) is 111 % of control; the T/C (dose: 6.0 mg/kg/injection, vehicle: saline) was 124 % of control.
